We go through 11 molecules from patent US12180207B2 (ARRAY BIOPHARMA INC., priority 2018, dated 2024).

Assay [1] has as its target HEK-293 cells transfected with dox-inducible human wild type FGFR2 (Homo sapiens (Human), UniProt P21802). Description: FGFR2 pFGFR cell assay (ELISA). The format is cell-based. Conditions: HEK-293 dox-inducible FGFR2, 1 hour compound, 30 ng/ml FGF-acidic. In short, it runs like this: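 Doxycycline-induced (1 μg/ml) cells preincubated with compound (1:3 serial dilutions, top final 5 μM) for 1 h at 37 °C, then stimulated with 30 ng/ml FGF-acidic for 5 min. Lysates assayed by ELISA capturing total FGFR2 and detecting phosphotyrosine (OD 450 nm). POC relative to no-compound and control-compound wells; IC50 from 4-parameter logistic fit.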

In assay [2] the target is HEK-293 cells transfected with dox-inducible human wild type FGFR1 (Homo sapiens (Human), UniProt P11362). Description: FGFR1 pFGFR cell assay (ELISA). The format is cell-based. Conditions: HEK-293 dox-inducible FGFR1, 1 hour compound. How it is done: FGFR1 pFGFR Cell Assay: • HEK-293 cells transfected with dox-inducible human wild type FGFR1 (SEQ ID NO: 1) were plated in a collagen or poly-D-lysine coated 96 well flat bottom plates at 4×10^5 cells/well in complete DMEM medium containing 10% FBS and 1 μg/ml doxycycline and allowed to attach for 24 h at 37° C., 5% CO2. Cells were treated with compound using 1:3 serial dilutions with a maximum final concentration of 5 μM. Compound was incubated on cells for 1 hour at 37° C., 5% CO2. Medium was removed, and cells were lysed with lysis buffer containing phosphatase and protease inhibitors. Phospho FGFR1 was measured by ELISA (R&D Systems cat. no. DYC5079 or Cell Signaling Technology cat. no. 12909). The ELISA captures total FGFR1 and detects total phospho tyrosine. Optical density was measured for each well using a Versamax reader at a wavelength of 450 nm. 100 POC was determined using no test compounds and 0 POC was determined using a control compound. The POC values were fit to a 4-parameter logistic curve as a function of the concentration of the compound, and the IC50 value is the point where the curve crosses 50 POC.

The structures appear in SMILES notation. pIC50: −log10 of the molar value.

Chain of HEK-293 cells transfected with dox-inducible human wild type FGFR2 (P21802 22-821): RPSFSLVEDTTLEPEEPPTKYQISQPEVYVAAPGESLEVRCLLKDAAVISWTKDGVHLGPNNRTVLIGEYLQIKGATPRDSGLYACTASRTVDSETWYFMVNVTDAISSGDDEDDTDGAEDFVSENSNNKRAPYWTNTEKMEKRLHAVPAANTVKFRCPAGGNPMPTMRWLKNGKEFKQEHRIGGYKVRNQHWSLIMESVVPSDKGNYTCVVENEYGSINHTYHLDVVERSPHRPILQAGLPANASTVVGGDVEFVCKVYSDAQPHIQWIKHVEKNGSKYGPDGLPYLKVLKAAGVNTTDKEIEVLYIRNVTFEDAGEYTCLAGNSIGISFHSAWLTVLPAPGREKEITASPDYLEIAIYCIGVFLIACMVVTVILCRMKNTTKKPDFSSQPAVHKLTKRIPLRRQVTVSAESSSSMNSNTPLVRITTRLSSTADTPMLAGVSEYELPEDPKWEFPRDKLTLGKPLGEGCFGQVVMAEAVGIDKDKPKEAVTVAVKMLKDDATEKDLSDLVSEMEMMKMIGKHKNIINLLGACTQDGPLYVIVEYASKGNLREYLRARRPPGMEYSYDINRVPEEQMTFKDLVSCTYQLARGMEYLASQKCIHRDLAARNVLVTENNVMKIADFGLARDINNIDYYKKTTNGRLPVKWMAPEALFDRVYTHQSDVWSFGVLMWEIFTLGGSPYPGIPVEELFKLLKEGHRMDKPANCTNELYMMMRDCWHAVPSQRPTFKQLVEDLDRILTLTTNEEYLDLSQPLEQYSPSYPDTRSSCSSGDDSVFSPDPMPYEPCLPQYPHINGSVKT
Chain of HEK-293 cells transfected with dox-inducible human wild type FGFR1 (P11362 22-822): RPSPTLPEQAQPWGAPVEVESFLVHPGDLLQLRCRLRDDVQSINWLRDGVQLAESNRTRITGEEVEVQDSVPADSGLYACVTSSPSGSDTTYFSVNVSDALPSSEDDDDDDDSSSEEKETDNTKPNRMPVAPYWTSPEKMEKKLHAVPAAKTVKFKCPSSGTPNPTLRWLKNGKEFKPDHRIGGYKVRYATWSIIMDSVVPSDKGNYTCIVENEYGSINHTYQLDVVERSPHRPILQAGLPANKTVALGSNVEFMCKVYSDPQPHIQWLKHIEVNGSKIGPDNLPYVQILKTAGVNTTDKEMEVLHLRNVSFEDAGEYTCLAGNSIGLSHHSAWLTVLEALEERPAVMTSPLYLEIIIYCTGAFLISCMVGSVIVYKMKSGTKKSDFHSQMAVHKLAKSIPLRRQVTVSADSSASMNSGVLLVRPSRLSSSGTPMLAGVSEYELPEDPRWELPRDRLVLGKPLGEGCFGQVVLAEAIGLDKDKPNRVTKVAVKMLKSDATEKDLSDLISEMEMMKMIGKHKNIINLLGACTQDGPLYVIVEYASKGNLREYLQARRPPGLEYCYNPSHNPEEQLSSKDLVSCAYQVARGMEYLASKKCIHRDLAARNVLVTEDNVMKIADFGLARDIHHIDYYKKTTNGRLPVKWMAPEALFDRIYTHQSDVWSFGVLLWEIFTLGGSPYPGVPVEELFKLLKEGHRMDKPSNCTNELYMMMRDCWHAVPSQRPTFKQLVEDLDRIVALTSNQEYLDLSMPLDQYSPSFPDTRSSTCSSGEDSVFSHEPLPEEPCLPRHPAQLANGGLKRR

Molecule `C=CC(=O)N1CC(C(=O)N2CCC(n3cc(-c4cc(OC)c5c(C#N)cnn5c4)cn3)CC2)C1(C)C` (centres unmarked) [Example 43, 6-(1-(1-(1-acryloyl-2,2-dimethylazetidine-3-carbonyl)piperidin-4-yl)-1H-pyrazol-4-yl)-4-methoxypyrazolo[1,5-a]pyridine-3-carbonitrile] had a pIC50 in assay [1] of 7.10.
Still for that read-out and setting: the same measure for `C=CC(=O)N1CC(C(=O)N2C3CCC2CN(c2ccc(-c4cc(OC)c5c(C#N)cnn5c4)cn2)C3)C1` [Example 50, 6-(6-(8-(1-acryloylazetidine-3-carbonyl)-3,8-diazabicyclo[3.2.1]octan-3-yl)pyridin-3-yl)-4-methoxypyrazolo[1,5-a]pyridine-3-carbonitrile]: 6.75; for `C=CC(=O)N1CC(C(=O)N2CC3CCC(C2)N3c2ccc(-c3cc(OC)c4c(C#N)cnn4c3)cn2)C1` [Example 51, 6-(6-(3-(1-acryloylazetidine-3-carbonyl)-3,8-diazabicyclo[3.2.1]octan-8-yl)pyridin-3-yl)-4-methoxypyrazolo[1,5-a]pyridine-3-carbonitrile]: 6.36; for `C=CC(=O)N1CC(C(=O)N2C3CC2CN(c2ccc(-c4cc(OC)c5c(C#N)cnn5c4)cn2)C3)C1` [Example 52, 6-(6-(6-(1-acryloylazetidine-3-carbonyl)-3,6-diazabicyclo[3.1.1]heptan-3-yl)pyridin-3-yl)-4-methoxypyrazolo[1,5-a]pyridine-3-carbonitrile]: 6.12.
Same read-out and setting: the figure for `C=CC(=O)N1CC(F)(C(=O)N2CCC(n3ncc(-c4cc(OC)c5c(C#N)cnn5c4)c3C)CC2)C1` [Example 85, 6-(1-(1-(1-acryloyl-3-fluoroazetidine-3-carbonyl)piperidin-4-yl)-5-methyl-1H-pyrazol-4-yl)-4-methoxypyrazolo[1,5-a]pyridine-3-carbonitrile] is 7.21; for `C=CC(=O)N1CC(OC)(C(=O)N2CCC(n3ncc(-c4cc(OC)c5c(C#N)cnn5c4)c3C)CC2)C1` [Example 88, 6-(1-(1-(1-acryloyl-3-methoxyazetidine-3-carbonyl)piperidin-4-yl)-5-methyl-1H-pyrazol-4-yl)-4-methoxypyrazolo[1,5-a]pyridine-3-carbonitrile] it is 6.84.
On the same count and under the same terms, the same measure for `C=CC(=O)N1CC(CN2CCC(n3ncc(-c4cc(OC)c5c(C#N)cnn5c4)c3C)CC2)C1` [Example 89, 6-(1-(1-((1-acryloylazetidin-3-yl)methyl)piperidin-4-yl)-5-methyl-1H-pyrazol-4-yl)-4-methoxypyrazolo[1,5-a]pyridine-3-carbonitrile]: 7.02.
As for `C=CC(=O)N1CC(C)(CN2CCC(n3ncc(-c4cc(OC)c5c(C#N)cnn5c4)c3C)CC2)C1` [Example 90, 6-(1-(1-((1-acryloyl-3-methylazetidin-3-yl)methyl)piperidin-4-yl)-5-methyl-1H-pyrazol-4-yl)-4-methoxypyrazolo[1,5-a]pyridine-3-carbonitrile], in assay [1], the negative-log IC50 (pIC50) is 6.96.
Still for that read-out and setting: the same measure for `C=CC(=O)N1CC(CN2CCC(n3ncc(-c4cc(OC)c5c(C#N)cnn5c4)c3C)CC2)(OC)C1` [Example 91, 6-(1-(1-((1-acryloyl-3-methoxyazetidin-3-yl)methyl)piperidin-4-yl)-5-methyl-1H-pyrazol-4-yl)-4-methoxypyrazolo[1,5-a]pyridine-3-carbonitrile]: 6.97.
As to `C=CC(=O)Nc1ccc(C(=O)N2CCC(n3cc(-c4cc(OC)c5c(C#N)cnn5c4)cn3)CC2)cc1` [Example 177, N-(4-(4-(4-(3-cyano-4-methoxypyrazolo[1,5-a]pyridin-6-yl)-1H-pyrazol-1-yl)piperidine-1-carbonyl)phenyl)acrylamide], in assay [2], the pIC50 was 6.91.
In turn, `C=CS(=O)(=O)Nc1cccc(C(=O)N2CCC(n3cc(-c4cc(OC)c5c(C#N)cnn5c4)cn3)CC2)c1` [Example 188, N-(3-(4-(4-(3-cyano-4-methoxypyrazolo[1,5-a]pyridin-6-yl)-1H-pyrazol-1-yl)piperidine-1-carbonyl)phenyl)eth-enesulfonamide] gave a pIC50 in assay [1] of 6.80.
